The values that follow come from paper PMC4460047 (PLoS ONE, 2015).

The nature of series [1]: Stability and PEA release in 80% v/v rat plasma. The format is in vitro ADME. The note with it: for half-life at 50 nM: rat, pH 7.4, 80% v/v rat plasma, 50 nm compound, read-out: Rat Plasma Compd t 1/2. As for the experimental part: (§1) The chemical and metabolic stability of PEA and all prodrugs were studied by incubating each compound (5 μL of a […] solution in DMSO, or DMSO as control) with 495 μL of 10 mM phosphate buffered saline pH 7.4 for chemical stability, 80% v/v rat plasma or 20% w/v rat liver homogenate prepared accordingly to previously described procedures for metabolic stability, reaching a final concentration of 50 nm for the test compound.
(§2) Rat plasma and liver samples were pre-incubated at 37°C for 10 min before adding the compounds. After incubation for different time periods (0, 15, 30, 60, 120, 240 and 360 min), samples were deproteinized by adding 100 μL of acetonitrile with 75 nmol L^-1 IS (PEA-d4). The samples were centrifuged (14 000 g, 10 min, 4°C), and the supernatants were analyzed by HPLC–ESI–MS/MS. For each tested compound, a multiple reaction monitoring (MRM) ESI–MS/MS method was set up in order to monitor the relative concentration of compound and released PEA at the different incubation times, compared to the time t = 0, in rat plasma and liver homogenate.
Cmax and tmax in rat plasma were read from the raw data as the coordinates of the highest concentration observed. A Thermo TSQ Quantum triple-quadrupole mass spectrometer (Thermo Italia, Milan, Italy) with heated electrospray ionization (H-ESI) ion source was used for mass detection and analysis. Mass spectrometric analyses were done in positive ion mode. H-ESI interface parameters were set as follows: probe middle (D) position; capillary temperature 270°C; spray voltage 3.0 kV. Nitrogen was used as nebulizing gas at the following pressure: sheath gas 35 psi; auxiliary gas 15 arbitrary units (a.u.). Argon was used as the collision gas at a pressure of approximately 1.5 mtorr (1 torr = 133.3 Pa). For quantitative analysis, the following parent ion → product ions transitions were selected: PEA (1): m/z 300.2 → m/z 62.3 (tube lens 60 V; collision energy 19 eV); PEA-d4 (Internal Standard): m/z 304.2 → m/z 66.3 + m/z 287.2 (tube lens 72 V; collision energy 15, 12 eV). MRM transitions, tube lens voltages and collision energies for compounds 3–5, 7–9, 19–24, 26–31, and 33 are reported in the S1 File. […] The coefficients of correlation (r^2) were >0.99 for all curves. The LOQ was 1 nmol mL^−1 for all analytes. Extraction efficiency was determined by comparing the peak area ratio of spiked samples at three concentration levels (low, intermediate, and high) to those of extracted charcoal treated blank plasma spiked with the corresponding concentrations. The mean extraction recovery ranged from 109% to 91% for all compounds. The specificity of the assay was evaluated by comparison of HPLC–ESI–MS/MS chromatograms of the analytes at the LOQ to those of charcoal treated blank plasma samples in triplicate.

The conditions of series [2]: Beagle dogs, oral 30 mg kg-1; cited from earlier work.
A short description of series [3]: Stability in 20% w/v rat liver homogenate. The following applies: for half-life at 50 nM: rat liver homogenate, read-out: Rat Liver Compd t 1/2. The format is in vitro ADME. As for the experimental part:
as §1, §2

Series [4] is described as follows: Plasma levels after oral administration to Wistar rats. The format is in vivo, rat. The following applies: for AUC(0-t) / concentration at 15 min / concentration at 30 min / concentration at 60 min / concentration at 120 min / concentration at 240 min / concentration at 360 min / concentration at 480 min: male, rat, plasma, po, n = 9; for AUC(0-t): Wistar, administered compound, mean±SEM, read-out: AUC0- 480 (converted); for AUC(0-t) / Cmax of administered compound in rat plasma / Time of Cmax of administered compound in rat plasma: p.o.; for Cmax of administered compound in rat plasma / Time of Cmax of administered compound in rat plasma: PEA 100 mg kg-1, 20, 28 145 mg kg-1; for concentration at 15 min / concentration at 30 min / concentration at 60 min / concentration at 120 min / concentration at 240 min / concentration at 360 min / concentration at 480 min: p.o. 145 mg kg-1, Wistar rats, mean ± SEM; for concentration at 15 min: read-out: Prodrug Conc in plasma, 15 min; for concentration at 30 min: read-out: Prodrug Conc in plasma, 30 min; for concentration at 60 min: read-out: Prodrug Conc in plasma, 60 min; for concentration at 120 min: read-out: Prodrug Conc in plasma, 120 min; for concentration at 240 min: read-out: Prodrug Conc in plasma, 240 min; for concentration at 360 min: read-out: Prodrug Conc in plasma, 360 min; for concentration at 480 min: read-out: Prodrug Conc in plasma, 480 min. On the procedure:
Twenty-seven male Wistar rats (Charles River Laboratories, Italy), 150–250 g in weight, were used in the study. Number of animals was calculated by G-power a priori analysis (α = 0.05 and β = 0.05). Animals were housed in group in policarbonate cages (Tecniplast, Italy) in a conventional facility with controlled temperature 22±1°C, a relative humidity of 55±5%, and a 12 h light/dark cycle (6:00 am to 6:00 pm). The rats were provided standard pellet diet (4RF21 GLP Mucedola, Italy) and water ad libitum throughout the study. The experiments were started only after acclimatization of animals to the laboratory conditions. Before the experiments, rats were fasted for 18 h, with free access to drinking water. Animals were randomized in three experimental groups (nine animals for each group) receiving respectively L-Val-PEA (20), D-Val-PEA (28) and PEA (1).
The day of the experiments substances were turned into a corn oil suspension, after ultrasound and vortexing and they were administered to rats between 8.00 and 10.00 am by gastric gavage at the equimolar doses of 145 mg kg^-1 for L- and D-Val-PEA (20, 28) and 100 mg kg^-1 of PEA (1). Blood samples were collected via sub-tongue puncture from each anaesthetized rat (2% isofluran in air) to minimize any suffering. Blood samples of 0.2 mL were collected before treatment and at 15, 30, 60, 120, 240, 360 and 480 min post-dosing into EDTA-treated tubes (Sarstedt, Germany), immediately centrifuged (5000 rpm, 10 min, 4°C; refrigerated microcentrifuge Z 216 MK, Hermle LaborTechnik). Resulting plasma was immediately processed by protein precipitation with ice-cold acetonitrile containing the IS 75 nmol L^-1 (PEA-d4) and analyzed as previously described. AUC values were calculated employing the software add-ons of Microsoft Excel.

A short description of series [5]: Chemical stability in phosphate buffered saline pH 7.4. The following applies: percent remaining after 6 h of incubation at 37°C in PBS buffer pH 7.4. The format is physicochemical. As for the experimental part:
as §1, §2

In series [6] the test system is liver FAAH. Details: method as in PMID 17217969. The following applies: cited from earlier work.
The test system of series [7] is amidase activity in rat liver homogenate. The format is biochemical. From the text: Fig 8 Role of amidase activity on compound degradation in rat liver homogenate.
Setting [8] is: after addition of 25 pmol of PEA, 80% v/v rat plasma.
[9] abbreviates: rat, 20% w/v rat liver homogenate, 37°C.

The term fraction remaining denotes what is left of the initial amount, in per cent. Regarding `CCCCCCCCCCCCCCCC(=O)NCCO` [compound 1, Palmitoylethanolamide, reference compound], in series [1] (setting [8]), the “PEA concentration in rat plasma after 1 h” value came out at 56.2 ± 4.3 nM, the “PEA concentration in rat plasma after 6 h” value was 44.0 ± 3.2 nM and the “PEA concentration in rat plasma at starting point” value came out at 71.9 ± 2.1 nM. For the same compound, the fraction remaining at 6 h, 50 nM in series [1] (pH 7.4, 80% v/v rat plasma, 37°C, 6 h, read-out: Percent remaining after 6 h incubation in rat plasma) stood at 70 ± 2%. In addition, in series [2], the “Increase in basal plasma levels at Cmax” value is on record as “five-fold increase” and the “Time of maximal plasma concentration (Cmax)” value was 1 to 2 h. Further, the “PEA concentration in rat liver homogenate after 120 min” value in series [3] (no detectable basal PEA levels) was 4.0 ± 1.2 nM. The half-life at 50 nM in series [3] (setting [9]) is approximately 25 min. Further, in series [4], the AUC(0-t) was 109 ng·h/mL, the “Cmax of administered compound in rat plasma” value is given as 420 ± 132 nm and the “Time of Cmax of administered compound in rat plasma” value (from here on “Time of Cmax … in rat plasma”) is reported as 15 min. The “Increase of PEA basal plasma values at Cmax” value in series [4] (p.o. PEA 100 mg kg-1, 15 min) was 20 fold. Besides, the “%Compd at 6 h, pH 7.4” value in series [5] stood at 95 ± 1%. In addition, in series [5] (listed as PEA), the “%Compd at 6 h, pH 7.4” value is listed as 95%.
Turning to `CCCCCCCCCCCCCCCC(=O)NCCOC(=O)[C@H](N)C(C)C.Cl` [compound 28, 2-(Palmitoylamino)ethyl D-valinate hydrochloride], the “Rat plasma half-life relative to L-Val-PEA (20)” value in series [1] (rat plasma) was “over 6 fold”. Also, the half-life at 50 nM in series [1] (80% v/v rat plasma, 37°C) turned out to be 173 ± 4 min. Also, the fraction remaining at 2 h, 50 nM in series [3] (rat, 20% w/v rat liver homogenate, 37°C, 2 h, read-out: Percent remaining after 2 h incubation in rat liver homogenate) came to 67 ± 9%. In series [4], the AUC(0-t) was 231 ng·h/mL, the concentration at 15 min is 907 nM, the concentration at 30 min is 280 nM and the concentration at 60 min is 65.9 nM. In series [4], the concentration at 120 min is 56.4 nM, the concentration at 240 min came to 39.9 nM, the concentration at 360 min stood at 11.4 nM and the concentration at 480 min is 10.1 nM. Besides, in series [4], the “Cmax of administered compound in rat plasma” value amounted to 907 nm and the “Time of Cmax … in rat plasma” value is given as 15 min. Besides, the “%Compd at 6 h, pH 7.4” value in series [5] is given as 87 ± 2%.
The term IC50 denotes the point on the concentration scale where inhibition reaches its midpoint. On to `NC(=O)c1cccc(-c2cccc(OC(=O)NC3CCCCC3)c2)c1` [URB597, cyclohexylcarbamic acid 3'-carbamoylbiphenyl-3-yl ester], for which the IC50 in series [6] was approximately 3 nM. In addition, in series [7] (URB597 10 μm pre-incubation), the “Effect on PEA hydrolysis” value is on record as “complete inhibition of PEA hydrolysis” and the “Effect on conversion of 20 into PEA” value was “quantitative conversion of 20 into PEA”. Further, the “Effect on PEA concentrations vs control incubations of PEA and 20” value in series [7] (URB597 100 nm, 10 min pretreatment, p<0.05) is “partial, but statistically significant, increase of PEA concentrations”.
On to `CCCCCCCCCCCCCCCC(=O)NCCOC(=O)[C@@H](N)C(C)C.Cl` [compound 20, 2-(palmitoylamino)ethyl L-valinate hydrochloride], for which the “Increase in plasma half-life relative to L-Ala-PEA” value in series [1] (rat plasma) is 46 fold. Also, the half-life at 50 nM in series [1] (80% v/v rat plasma, 37°C) amounted to 46 ± 3 min. The half-life at 50 nM in series [3] (setting [9]) was 26 ± 1 min. Moreover, in series [4], the AUC(0-t) was 129 ng·h/mL, the concentration at 15 min is 612 nM, the concentration at 30 min was 212 nM and the concentration at 60 min turned out to be 35.8 nM. For the same compound, in series [4], the concentration at 120 min turned out to be 22.2 nM, the concentration at 240 min was found to be 7.1 nM, the concentration at 360 min was determined as 2.7 nM and the concentration at 480 min was found to be 9.3 nM. Also, in series [4], the “Cmax of administered compound in rat plasma” value came out at 612 nm and the “Time of Cmax … in rat plasma” value was determined as 15 min. Also, the “%Compd at 6 h, pH 7.4” value in series [5] was 91 ± 2%.
